# Assay results from patent US10351915B2 (Berg LLC, priority 2009, dated 2019).
# Legend:
# [1] = test system: various cell types; experiment: Minimal CoQ10 concentration and treatment time for induction of early apoptosis (Bcl-2, caspase, annexin V); type: cell-based
# Description: CoQ10 treatment of cells was carried out as described in detail below in the Materials and Methods. Induction of apoptosis was assessed in the treated cells by monitoring indicators of early apoptosis (e.g., Bcl-2 expression, caspase activation and by using annexin V assays) as described below. From these studies, the minimal CoQ10 dosage, e.g., concentration of CoQ10 and time of treatment, required to induce apoptosis in the panel of cell lines was determined.
# Cells were cultured in T-75 flasks with relevant medium supplemented with 10% Fetal Bovine Serum (FBS), 1% PSA (penicillin, streptomycin, amphotericin B) (Invitrogen and Cellgro) in a 37° C. incubator with 5% CO2 levels until 70-80% confluence was reached. To harvest cells for treatment, flasks were primed with 1 mL Trypsin, aspirated, trypsinized with an additional 3 mL, and incubated at 37° C. for […]. Cells were then neutralized with an equal volμme of media and the subsequent solution was centrifuged at […] for 8 minutes. The supernatant was aspirated and the cells were resuspended with 8.5 ml of media. A mixture of 500 ul of the resuspension and 9.5 ml of […] was read twice by a coulter counter and the appropriate number of cells to be seeded into each dish was determined. Control and concentration ranging from 0-200 μM groups were examined in triplicate. From a 500 μM CoQ-10 stock solution, serial dilutions were performed to achieve desired experimental concentration in appropriate dishes. Dishes were incubated in a 37° C. incubator with 5% CO2 levels for 0-72 hours depending on cell type and experimental protocol.
# The volume of sample to load per well was determined using the raw mean concentration of protein obtained from the BCA protein assay. Approximately 30-60 μg of protein were loaded for each treatment time point. Proteins were run in triplicate on 12% Tris-HCl ready gels (Bio-Rad) or hand cast gels in 1× running buffer at 85 and 100 volts. Proteins were then transferred onto nitrocellulose paper for an hour at 100 volts, and blocked for another hour in a 5% milk solution. Membranes were placed in primary antibody (1 uL Ab:1000 uL TBST) (Cell Signaling) overnight at […] The following day, membranes were washed three times for ten minutes each with Tris-Buffered Saline Tween-20 (TBST), and secondary antibody (anti-rabbit; 1 uL Ab: 1000 uL TBST) was applied for an hour at […] Membranes were washed again three times for ten minutes with TBST and chemoluminescence using Pico or Femto substrate was completed (Pierce). Membranes were then developed at time intervals that produced the best visual results. After developing, membranes were kept in TBST at […] until Actin levels could be measured.
# Cells were washed twice in PBS10X and resuspended in Binding Buffer (0.1 M HEPES, pH 7.4; 1.4 M NaCl; 25 mM CaCl2). Samples of 100 μl were added to a culture tube with 5 μl of annexin-PE dye or […]. The cells were mixed and incubated without light at room temperature for 15 minutes. After which, 400 μl of 1× Binding Buffer was added to each sample and they were subjected to analysis by flow cytometry.
# [2] = cited from earlier work
smiles,measurement,setting,value
"COC1=C(OC)C(=O)C(C/C=C(\C)CC/C=C(\C)CC/C=C(\C)CC/C=C(\C)CC/C=C(\C)CC/C=C(\C)CC/C=C(\C)CC/C=C(\C)CC/C=C(\C)CCC=C(C)C)=C(C)C1=O [Q10, Coenzyme Q10]","Indication of Early apoptosis (Bcl-2, annexin V, or caspase activation)",[1]; BONE: Ewing's sarcoma (NCI),Extremely
same,Minimal treatment Time for induction of early apoptosis,[1]; BONE: Ewing's sarcoma (NCI),1 h
same,"Indication of Early apoptosis (Bcl-2, annexin V, or caspase activation)",[1]; BONE: Osteosarcoma (143b),Very Strong
same,Minimal treatment Time for induction of early apoptosis,[1]; BONE: Osteosarcoma (143b),48 h
same,"Indication of Early apoptosis (Bcl-2, annexin V, or caspase activation)",[1]; BREAST: BT-20,Strong
same,Minimal treatment Time for induction of early apoptosis,[1]; BREAST: BT-20,48 h
same,"Indication of Early apoptosis (Bcl-2, annexin V, or caspase activation)",[1]; BREAST: MCF-7,Strong
same,Minimal treatment Time for induction of early apoptosis,[1]; BREAST: MCF-7,48 h
same,"Indication of Early apoptosis (Bcl-2, annexin V, or caspase activation)",[1]; BREAST: MDA MB 468,Strong
same,Minimal treatment Time for induction of early apoptosis,[1]; BREAST: MDA MB 468,48 h
same,"Indication of Early apoptosis (Bcl-2, annexin V, or caspase activation)",[1]; BREAST: SkBr-3,Very Strong
same,Minimal treatment Time for induction of early apoptosis,[1]; BREAST: SkBr-3,24 h
same,"Indication of Early apoptosis (Bcl-2, annexin V, or caspase activation)",[1]; BREAST: ZR-75,Slight
same,Minimal treatment Time for induction of early apoptosis,[1]; BREAST: ZR-75,72 h
same,"Indication of Early apoptosis (Bcl-2, annexin V, or caspase activation)",[1]; Heart: Aortic smooth muscle (HASMC),None
same,"Indication of Early apoptosis (Bcl-2, annexin V, or caspase activation)",[1]; LIVER: Hep3B,Very Strong
same,Minimal treatment Time for induction of early apoptosis,[1]; LIVER: Hep3B,24 h
same,"Indication of Early apoptosis (Bcl-2, annexin V, or caspase activation)",[1]; LIVER: HepG2,Very Strong
same,Minimal treatment Time for induction of early apoptosis,[1]; LIVER: HepG2,24 h
same,"Indication of Early apoptosis (Bcl-2, annexin V, or caspase activation)",[1]; Mammary fiboblasts: 184A1 and 184B5,None
same,"Indication of Early apoptosis (Bcl-2, annexin V, or caspase activation)",[1]; Melanoma (Skmel 2),Very Strong
same,Minimal treatment Time for induction of early apoptosis,[1]; Melanoma (Skmel 2),24 h
same,"Indication of Early apoptosis (Bcl-2, annexin V, or caspase activation)",[1]; Melanoma (Skmel 28),Strong
same,Minimal treatment Time for induction of early apoptosis,[1]; Melanoma (Skmel 28),24 h
same,"Indication of Early apoptosis (Bcl-2, annexin V, or caspase activation)",[1]; PANCREAS: PaCa2,Very Strong
same,Minimal treatment Time for induction of early apoptosis,[1]; PANCREAS: PaCa2,24 h
same,"Indication of Early apoptosis (Bcl-2, annexin V, or caspase activation)",[1]; PROSTATE: PC3,Very Strong
same,Minimal treatment Time for induction of early apoptosis,[1]; PROSTATE: PC3,24 h
same,"Indication of Early apoptosis (Bcl-2, annexin V, or caspase activation)","[1]; SCC, Squamous cell carcinoma",Very Strong
same,Minimal treatment Time for induction of early apoptosis,"[1]; SCC, Squamous cell carcinoma",24 h
same,"Indication of Early apoptosis (Bcl-2, annexin V, or caspase activation)",[1]; SKIN: Fibroblasts (nFib),None
same,"Indication of Early apoptosis (Bcl-2, annexin V, or caspase activation)","[1]; SKIN: Keratinocytes (Heka, Hekn)",None
same,"Indication of Early apoptosis (Bcl-2, annexin V, or caspase activation)","[1]; SKIN: Melanocytes (Hema, LP)",None
same,effect on normal cells,"[1]; normal cells, including keratinocytes and dermal fibroblasts",increased proliferation and migration
same,efficacy of Coenzyme Q10 treatment (induction of apoptosis),[1]; oncogenic cell lines,greater in cell types that exhibited increased oncogenicity and/or greater metastatic potential
same,solubility in water,[2],insoluble in water
